Tests used:
Assay type in all cases: in vivo
[1] = test system: Echinochloa crus-galli var. formosensis; test: Test Example 2: herbicidal effect test by application during growth period of paddy rice; conditions: Echinochloa crus-galli; 120 g per 10 ares; applied seven days after sowing, flooded pots; 14 days after application; read-out: weed inhibition rate
Procedure, shortened: (§1)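 Herbicidal effect was scored 14 days after treatment, in duplicate per concentration. Weeds sown 0–1 cm deep in puddled, fertilized paddy soil under about 3 cm of standing water received a water-diluted emulsifiable concentrate by dropper 7 days post-sowing, at 120 g a.i. per 10 ares.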

Monochoria vaginalis = test: as above; conditions: Pontederia vaginalis; 120 g per 10 ares; applied seven days after sowing, flooded pots; 14 days after application; read-out: weed inhibition rate
Procedure, shortened: as §1

Scirpus juncoides = test: as above; conditions: Schoenoplectiella juncoides; 120 g per 10 ares; applied seven days after sowing, flooded pots; 14 days after application; read-out: weed inhibition rate
Procedure, shortened: as §1

Digitaria ciliaris [2] = test: Test Example 3: herbicidal effect test by soil application in upland field; conditions: Digitaria ciliaris, 120 g per 10 ares, sprayed one day after sowing, 14 days after application, read-out: weed inhibition rate
Procedure, shortened: (§2)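 Weed inhibition (%) was assessed 14 days after treatment, in duplicate per concentration group. Seeds had been mixed into the upper 1 cm of upland alluvial loam, and the soil surface was sprayed one day later with the diluted emulsifiable concentrate at 120 g active ingredient per 10 ares.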

Echinochloa crus-galli [3] = test: as above; conditions: Echinochloa crus-galli, 120 g per 10 ares, sprayed one day after sowing, 14 days after application, read-out: weed inhibition rate
Procedure, shortened: as §2

[4] = test system: Echinochloa crus-galli var. formosensis; test: Test Example 6: herbicidal effect test by application during growth period of paddy rice (low dose); conditions: Echinochloa crus-galli; 7.5 g per 10 ares; applied seven days after sowing, flooded pots; 14 days after application; read-out: weed inhibition rate
Procedure, shortened: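 Puddled, fertilised paddy soil was sown with 30 seeds per species and flooded to about 3 cm. After 7 days in a glass greenhouse, the diluted emulsifiable concentrate went into the water by dropper at 7.5 g/10 a. Effect scored at 14 days.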

Digitaria ciliaris [5] = test: Test Example 4: herbicidal effect test by stem and leaf treatment in upland field; conditions: Digitaria ciliaris; 120 g per 10 ares; sprayed seven days after sowing, upland soil; 14 days after application; read-out: weed inhibition rate
Digitaria ciliaris [6] = test: Test Example 8: herbicidal effect test by stem and leaf treatment in upland field (low dose); conditions: Digitaria ciliaris; 7.5 g per 10 ares; sprayed seven days after sowing, upland soil; 14 days after application; read-out: weed inhibition rate
Echinochloa crus-galli [7] = test: as above; conditions: Echinochloa crus-galli; 7.5 g per 10 ares; sprayed seven days after sowing, upland soil; 14 days after application; read-out: weed inhibition rate
Echinochloa crus-galli [8] = test: Test Example 7: herbicidal effect test by soil application in upland field (low dose); conditions: Echinochloa crus-galli, 7.5 g per 10 ares, sprayed one day after sowing, 14 days after application, read-out: weed inhibition rate
Procedure, shortened: (§3)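 Pre-emergence soil treatment: 7.5 g a.i. per 10 a applied as water-diluted emulsifiable concentrate (100 L/10 a) to soil surface one day post-sowing in alluvial loam. Inhibition (%) assessed at 14 days, duplicate pots per concentration.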

Digitaria ciliaris [9] = test: as above; conditions: Digitaria ciliaris, 7.5 g per 10 ares, sprayed one day after sowing, 14 days after application, read-out: weed inhibition rate
Procedure, shortened: as §3

CC(C)CC1C[C@]2(C)O[C@@]1(C(C)C)C[C@H]2OCc1ccccc1F (stereo partly drawn) [1-915, (1S,2R,4R)-2-((2-fluorobenzyl)oxy)-5-isobutyl-4-isopropyl-1-methyl-7-oxabicyclo[2.2.1]heptane]
≥ 80%: inhibition at 1200 g/ha [1] | inhibition at 1200 g/ha (Monochoria vaginalis) | inhibition at 1200 g/ha (Scirpus juncoides) | inhibition at 1200 g/ha (Digitaria ciliaris [2]) | inhibition at 1200 g/ha (Echinochloa crus-galli [3]) | inhibition at 75 g/ha [4] | inhibition at 1200 g/ha (Digitaria ciliaris [5]) | inhibition at 75 g/ha (Digitaria ciliaris [6]) | inhibition at 75 g/ha (Echinochloa crus-galli [7])

CC(C)[C@]12C[C@@H](OCc3cccc(F)c3)[C@](C)(CC1=O)O2 [2-351, (1R,4S,5R)-5-((3-fluorobenzyl)oxy)-1-isopropyl-4-methyl-7-oxabicyclo[2.2.1]heptan-2-one]
≥ 80%: inhibition at 1200 g/ha [1] | inhibition at 1200 g/ha (Monochoria vaginalis) | inhibition at 1200 g/ha (Scirpus juncoides) | inhibition at 1200 g/ha (Digitaria ciliaris [2]) | inhibition at 1200 g/ha (Echinochloa crus-galli [3]) | inhibition at 75 g/ha [4] | inhibition at 1200 g/ha (Digitaria ciliaris [5]) | inhibition at 75 g/ha (Digitaria ciliaris [6]) | inhibition at 75 g/ha (Echinochloa crus-galli [7]) | inhibition at 75 g/ha (Echinochloa crus-galli [8])

CC(C)[C@]12C[C@@H](OCc3ccccc3Br)[C@](C)(C[C@@H]1Br)O2 [1-694, (1S,2R,4R,5S)-5-bromo-2-[(2-bromophenyl)methoxy]-1-methyl-4-isopropyl-7-oxabicyclo[2.2.1]heptane]
≥ 80%: inhibition at 1200 g/ha [1] | inhibition at 1200 g/ha (Monochoria vaginalis) | inhibition at 1200 g/ha (Digitaria ciliaris [2]) | inhibition at 1200 g/ha (Echinochloa crus-galli [3]) | inhibition at 75 g/ha [4] | inhibition at 75 g/ha (Echinochloa crus-galli [7]) | inhibition at 75 g/ha (Digitaria ciliaris [9]) | inhibition at 75 g/ha (Echinochloa crus-galli [8])

Cc1ccc(CO[C@@H]2C[C@]3(C(C)C)O[C@@]2(C)C[C@@H]3Br)cc1 [1-681, (1S,2R,4R,5S)-5-bromo-1-methyl-2-[(4-methylphenyl)methoxy]-4-isopropyl-7-oxabicyclo[2.2.1]heptane]
≥ 80%: inhibition at 1200 g/ha [1] | inhibition at 1200 g/ha (Monochoria vaginalis) | inhibition at 1200 g/ha (Scirpus juncoides) | inhibition at 1200 g/ha (Digitaria ciliaris [2]) | inhibition at 1200 g/ha (Echinochloa crus-galli [3]) | inhibition at 75 g/ha [4] | inhibition at 1200 g/ha (Digitaria ciliaris [5]) | inhibition at 75 g/ha (Digitaria ciliaris [6]) | inhibition at 75 g/ha (Echinochloa crus-galli [7]) | inhibition at 75 g/ha (Echinochloa crus-galli [8])

CC(C)=CCO[C@@H]1C[C@]2(C(C)C)O[C@@]1(C)C[C@@H]2Br [1-672, (1S,2R,4R,5S)-5-bromo-1-methyl-2-(3-methylbut-2-enoxy)-4-isopropyl-7-oxabicyclo[2.2.1]heptane]
≥ 80%: inhibition at 1200 g/ha [1] | inhibition at 1200 g/ha (Monochoria vaginalis) | inhibition at 1200 g/ha (Scirpus juncoides) | inhibition at 1200 g/ha (Digitaria ciliaris [2]) | inhibition at 1200 g/ha (Echinochloa crus-galli [3]) | inhibition at 75 g/ha [4] | inhibition at 1200 g/ha (Digitaria ciliaris [5]) | inhibition at 75 g/ha (Digitaria ciliaris [6]) | inhibition at 75 g/ha (Echinochloa crus-galli [7])

CC(C)[C@]12C[C@@H](OCc3ccccc3F)[C@](C)(C[C@@H]1OCc1ccccc1F)O2 [1-603, (1S,2R,4R,5S)-2,5-bis[(2-fluorophenyl)methoxy]-1-methyl-4-isopropyl-7-oxabicyclo[2.2.1]heptane]
≥ 80%: inhibition at 1200 g/ha [1] | inhibition at 1200 g/ha (Monochoria vaginalis) | inhibition at 1200 g/ha (Scirpus juncoides) | inhibition at 1200 g/ha (Digitaria ciliaris [2]) | inhibition at 1200 g/ha (Echinochloa crus-galli [3]) | inhibition at 75 g/ha [4] | inhibition at 1200 g/ha (Digitaria ciliaris [5])

CC(C)[C@]12C[C@@H](OCc3cccc(Cl)c3)[C@](C)(C[C@@H]1Br)O2 [1-692, (1S,2R,4R,5S)-5-bromo-2-[(3-chlorophenyl)methoxy]-1-methyl-4-isopropyl-7-oxabicyclo[2.2.1]heptane]
≥ 80%: inhibition at 1200 g/ha [1] | inhibition at 1200 g/ha (Monochoria vaginalis) | inhibition at 1200 g/ha (Scirpus juncoides) | inhibition at 1200 g/ha (Digitaria ciliaris [2]) | inhibition at 1200 g/ha (Echinochloa crus-galli [3]) | inhibition at 75 g/ha [4] | inhibition at 1200 g/ha (Digitaria ciliaris [5]) | inhibition at 75 g/ha (Digitaria ciliaris [9]) | inhibition at 75 g/ha (Echinochloa crus-galli [8])

CC(C)[C@]12C[C@@H](OCc3ccccc3F)[C@](C)(C[C@@H]1I)O2 [1-753, (1S,2R,4R,SS)-2-[(2-fluorophenyl)methoxy]-5-iodo-1-methyl-4-isopropyl-7-oxabicyclo[2.2.1]heptane]
≥ 80%: inhibition at 1200 g/ha [1] | inhibition at 1200 g/ha (Monochoria vaginalis) | inhibition at 1200 g/ha (Scirpus juncoides) | inhibition at 1200 g/ha (Digitaria ciliaris [2]) | inhibition at 1200 g/ha (Echinochloa crus-galli [3]) | inhibition at 75 g/ha [4] | inhibition at 75 g/ha (Echinochloa crus-galli [7]) | inhibition at 75 g/ha (Digitaria ciliaris [9]) | inhibition at 75 g/ha (Echinochloa crus-galli [8])

COC1(OC)C[C@]2(C)O[C@@]1(C(C)C)C[C@H]2OCc1ccccc1F [1-935, (1R,4S,5R)-5-((2-fluorobenzyl)oxy)-1-isopropyl-2,2-dimethoxy-4-methyl-7-oxabicyclo[2.2.1]heptane]
≥ 80%: inhibition at 1200 g/ha [1] | inhibition at 1200 g/ha (Monochoria vaginalis) | inhibition at 1200 g/ha (Scirpus juncoides) | inhibition at 1200 g/ha (Digitaria ciliaris [2]) | inhibition at 1200 g/ha (Echinochloa crus-galli [3]) | inhibition at 75 g/ha [4] | inhibition at 1200 g/ha (Digitaria ciliaris [5]) | inhibition at 75 g/ha (Digitaria ciliaris [9])

CC(C)[C@]12C[C@@H](OCc3ccc(Cl)cc3)[C@](C)(C[C@@H]1Br)O2 [1-693, (1S,2R,4R,5S)-5-bromo-2-[(4-chlorophenyl)methoxy]-1-methyl-4-isopropyl-7-oxabicyclo[2.2.1]heptane]
≥ 80%: inhibition at 1200 g/ha [1] | inhibition at 1200 g/ha (Monochoria vaginalis) | inhibition at 1200 g/ha (Scirpus juncoides) | inhibition at 1200 g/ha (Digitaria ciliaris [2]) | inhibition at 1200 g/ha (Echinochloa crus-galli [3]) | inhibition at 75 g/ha [4] | inhibition at 1200 g/ha (Digitaria ciliaris [5]) | inhibition at 75 g/ha (Echinochloa crus-galli [7]) | inhibition at 75 g/ha (Echinochloa crus-galli [8])

CC(C)[C@]12C[C@@H](OCc3ccc(Cl)cc3Cl)[C@](C)(C[C@@H]1Br)O2 [1-717, (1S,2R,4R,5S)-5-bromo-2-[(2,4-dichlorophenyl)methoxy]-1-methyl-4-isopropyl-7-oxabicyclo[2.2.1]heptane]
≥ 80%: inhibition at 1200 g/ha [1] | inhibition at 1200 g/ha (Monochoria vaginalis) | inhibition at 1200 g/ha (Scirpus juncoides) | inhibition at 1200 g/ha (Digitaria ciliaris [2]) | inhibition at 1200 g/ha (Echinochloa crus-galli [3]) | inhibition at 75 g/ha [4] | inhibition at 1200 g/ha (Digitaria ciliaris [5]) | inhibition at 75 g/ha (Digitaria ciliaris [6]) | inhibition at 75 g/ha (Echinochloa crus-galli [7])

CC(C)[C@]12C[C@@H](OCc3ccccc3C#N)[C@](C)(C[C@@H]1Br)O2 [1-703, 2-[[(1S,2R,4R,5S)-5-bromo-1-methyl-4-isopropyl-7-oxabicyclo[2.2.1]heptan-2-yl]oxymethyl]benzonitrile]
≥ 80%: inhibition at 1200 g/ha [1] | inhibition at 1200 g/ha (Monochoria vaginalis) | inhibition at 1200 g/ha (Scirpus juncoides) | inhibition at 1200 g/ha (Digitaria ciliaris [2]) | inhibition at 1200 g/ha (Echinochloa crus-galli [3]) | inhibition at 75 g/ha [4] | inhibition at 1200 g/ha (Digitaria ciliaris [5]) | inhibition at 75 g/ha (Digitaria ciliaris [6]) | inhibition at 75 g/ha (Echinochloa crus-galli [8])

From patent publication EP4707280A1, “1,4-CINEOLE DERIVATIVE AND INTERMEDIATE THEREOF, HERBICIDE CONTAINING SAID DERIVATIVE AS ACTIVE INGREDIENT, METHOD FOR USING HERBICIDE, AND METHOD FOR PREPARING AGROCHEMICAL COMPOSITION” (HOKKO CHEMICAL INDUSTRY CO., LTD., priority 2023, dated 2024)
